From patent US6635771B2, “N-benzhydryl indole compounds” (Wyeth, priority 2001, dated 2003)

Target: T1, cPLA2 (Homo sapiens, UniProt P47712)
T1 sequence (P47712 1-749): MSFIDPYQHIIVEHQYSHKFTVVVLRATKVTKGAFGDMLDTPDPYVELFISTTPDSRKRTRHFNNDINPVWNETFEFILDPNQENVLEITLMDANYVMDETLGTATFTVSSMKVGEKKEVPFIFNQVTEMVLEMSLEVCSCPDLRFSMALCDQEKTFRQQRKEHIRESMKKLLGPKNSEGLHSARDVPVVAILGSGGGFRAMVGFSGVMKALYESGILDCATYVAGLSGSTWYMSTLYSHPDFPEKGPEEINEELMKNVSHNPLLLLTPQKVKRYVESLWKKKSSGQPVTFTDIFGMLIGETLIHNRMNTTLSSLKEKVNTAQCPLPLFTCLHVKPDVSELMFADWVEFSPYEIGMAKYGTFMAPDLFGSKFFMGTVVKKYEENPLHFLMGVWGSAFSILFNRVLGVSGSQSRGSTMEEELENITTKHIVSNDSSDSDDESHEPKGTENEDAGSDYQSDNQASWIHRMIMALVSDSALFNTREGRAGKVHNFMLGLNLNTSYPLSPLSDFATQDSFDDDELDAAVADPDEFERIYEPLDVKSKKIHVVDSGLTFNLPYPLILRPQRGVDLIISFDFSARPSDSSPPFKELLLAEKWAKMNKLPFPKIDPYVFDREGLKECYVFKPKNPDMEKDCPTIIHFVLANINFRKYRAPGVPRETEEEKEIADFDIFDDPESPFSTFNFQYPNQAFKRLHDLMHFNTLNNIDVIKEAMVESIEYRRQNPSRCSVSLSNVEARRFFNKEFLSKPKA
Assay: Coumarine Assay
Format: biochemical
Details: 60 μM 7-hydroxycoumarinyl 6-heptenoate substrate, 4 μg cPLA2, pH 7.5, fluorescence ex 360 nm / em 460 nm; read-out: Coumarin IC50

Molecule | IC50
2-(2{[(2-Aminobenzyl)sulfonyl]amino}ethyl)-4-(2-[1-benzhydryl-5-chloro-1H-indol-3-yl]ethoxy}benzoic acid [Example 16] | 980 nM
4-{2-[1-Benzhydryl-5-chloro-2-(2-{[(2-cyanobenzyl)sulfonyl]amino}ethyl)-1H-indol-3-yl]ethoxy)benzoic acid [Example 35] | 330 nM
O=C(O)c1ccc(OCCc2c(CCNS(=O)(=O)Cc3ccccc3)n(C(c3ccccc3)c3ccccc3)c3ccc(Cl)cc23)cc1 [Example 1, 4-[2-(1-Benzhydryl-2-{2[(benzylsulfonyl)amino]ethyl}-5-chloro-1H-indol-3-yl)ethoxyl]benzoic acid] | 420 nM
O=C(O)c1ccc(OCCc2c(CCNS(=O)(=O)c3cnc(Cl)c(Br)c3)n(C(c3ccccc3)c3ccccc3)c3ccc(Cl)cc23)cc1 [Example 5, 4-{2-[1-Benzhydryl-2-(2-{[(5-bromo6-chloro-3-pyridinyl)sulfonyl]amino}ethyl)-5-chloro-1H-indol-3-yl]ethoxy}benzoic acid] | 3000 nM
CC1(C)C2CC[C@]1(CS(=O)(=O)NCCc1c(CCOc3ccc(C(=O)O)cc3)c3cc(Cl)ccc3n1C(c1ccccc1)c1ccccc1)C(=O)C2 [Example 6, 4-[2-(1-Benzhydryl-5-chloro-2-{2-[({[(1R)-7,7-dimethyl-2-oxobicyclo[2.2.1]hept-1-yl]methyl}sulfonyl)amino]ethyl}-1H-indol-3-yl)ethoxy]benzoic acid] | 2000 nM
O=C(O)c1ccc(OCCc2c(CCNS(=O)(=O)CCc3cccc4ccccc34)n(C(c3ccccc3)c3ccccc3)c3ccc(Cl)cc23)cc1 [Example 8] | 2000 nM
O=C(O)c1ccc(OCCc2c(CCNS(=O)(=O)Cc3ccccc3[N+](=O)[O-])n(C(c3ccccc3)c3ccccc3)c3ccc(Cl)cc23)cc1 [Example 9, 4-{2-[1-Benzhydryl-5-chloro-2-(2-[({2-nitrobenzyl}-sulfonyl)amino]ethyl}-1H-indol-3-yl)ethoxy]benzoic acid] | 700 nM
O=C(O)c1ccc(OCCc2c(CCNS(=O)(=O)Cc3ccc(C(F)(F)F)cc3)n(C(c3ccccc3)c3ccccc3)c3ccc(Cl)cc23)cc1 [Example 13] | 640 nM
O=C(O)c1ccc(OCCc2c(CCNS(=O)(=O)Cc3ccc(F)cc3)n(C(c3ccccc3)c3ccccc3)c3ccc(Cl)cc23)cc1 [Example 14, 4-{2-[1-Benzhydryl-5-chloro-2-(2-{[(4-fluorobenzyl)sulfonyl]amino}-ethyl)-1H-indol-3-yl]ethoxy}benzoic acid] | 800 nM
O=C(O)c1ccc(OCCc2c(CCNS(=O)(=O)Cc3cccc(C(=O)O)c3)n(C(c3ccccc3)c3ccccc3)c3ccc(Cl)cc23)cc1 [Example 20, 3-({[(2-{1-benzhydryl-3-[2-(4-carboxyphenoxy)ethyl]-5-chloro-1H-indol-2-yl}ethyl)amino]sulfonyl}methyl)benzoic acid] | 1100 nM
O=C(O)c1ccc(OCCc2c(CCNS(=O)(=O)C3CC3)n(C(c3ccccc3)c3ccccc3)c3ccc(Cl)cc23)cc1 [Example 23, 4-[2-(1-benzhydryl-5-chloro-2-{2-[(cyclopropylsulfonyl)amino]ethyl}-1H-indol-3-yl)ethoxy]benzoic acid] | 1500 nM
O=C(O)c1ccc(OCCc2c(CCNS(=O)(=O)c3ccc4ccccc4c3)n(C(c3ccccc3)c3ccccc3)c3ccc(Cl)cc23)cc1 [Example 26, 4-[2-(1-benzhydryl-5-chloro-2-{2-[(2-naphthylsulfonyl)amino]ethyl}-1H-indol-3-yl)ethoxy]benzoic acid] | 1100 nM
O=C(O)c1ccc(OCCc2c(CCNS(=O)(=O)c3cc(Cl)cc(Cl)c3)n(C(c3ccccc3)c3ccccc3)c3ccc(Cl)cc23)cc1 [Example 27, 4-{2-[1-benzhydryl-5-chloro-2-(2-{[(3,5-dichlorophenyl)sulfonyl]amino}ethyl)-1H-indol-3-yl]ethoxy}benzoic acid] | 800 nM
O=C(O)c1ccc(OCCc2c(CCNS(=O)(=O)c3ccc(Cl)c(Cl)c3)n(C(c3ccccc3)c3ccccc3)c3ccc(Cl)cc23)cc1 [Example 28, 4-{2-[1-benzhydryl-5-chloro-2-(2{[(3,4-dichlorophenyl)sulfonyl]amino}ethyl)-1H-indol-3-yl]ethoxy}benzoic acid] | 950 nM
O=C(O)c1ccc(OCCc2c(CCNS(=O)(=O)Cc3cccc(Cl)c3Cl)n(C(c3ccccc3)c3ccccc3)c3ccc(Cl)cc23)cc1 [Example 29, 4-{2-[1-benzhydryl-5-chloro-2-(2-{[(2,3-dichlorobenzyl)sulfonyl]amino}ethyl)-1H indol-3-yl]ethoxy}benzoic acid] | 190 nM
O=C(O)c1ccc(OCCc2c(CCNS(=O)(=O)Cc3ccc(Cl)cc3Cl)n(C(c3ccccc3)c3ccccc3)c3ccc(Cl)cc23)cc1 [Example 30, 4-{2-[1-benzhydryl-5-chloro-2-(2-{[(2,4-dichlorobenzyl)sulfonyl]amino}ethyl)-1H-indol-3-yl]ethoxy}benzoic acid] | 150 nM
O=C(O)c1ccc(OCCc2c(CCNS(=O)(=O)Cc3ccc(Cl)cc3[N+](=O)[O-])n(C(c3ccccc3)c3ccccc3)c3ccc(Cl)cc23)cc1 [Example 32, 4-{2-[1-benzhydryl-5-chloro-2-(2-{[(4-chloro-2-nitrobenzyl)sulfonyl]amino}ethyl)-1H-indol-3-yl]ethoxy}benzoic acid] | 85 nM
N#Cc1cccc(CS(=O)(=O)NCCc2c(CCOc3ccc(C(=O)O)cc3)c3cc(Cl)ccc3n2C(c2ccccc2)c2ccccc2)c1 [Example 36, 4-{2-[1-Benzhydryl-5-chloro-2-(2-{[(3-cyanobenzyl)sulfonyl]amino}ethyl)-1H-indol-3-yl]ethoxy}benzoic acid] | 500 nM

Other lines, results leading:

IC50 | Molecule
2000 nM | CC(C)S(=O)(=O)NCCc1c(CCOc2ccc(C(=O)O)cc2)c2cc(Cl)ccc2n1C(c1ccccc1)c1ccccc1 [Example 2, 4-[2-(1-Benzhydryl-5-chloro-2-{2-[(isopropylsulfonyl)amino]ethyl}-1H-indol-3-yl)ethoxy]benzoic acid]
2500 nM | CCCCS(=O)(=O)NCCc1c(CCOc2ccc(C(=O)O)cc2)c2cc(Cl)ccc2n1C(c1ccccc1)c1ccccc1 [Example 3, 4-[2-(1-Benzhydryl-2-{2-[(butylsulfonyl)amino]ethyl}-5-chloro-1H-indol-3-yl)ethoxy]benzoic acid]
56000 nM | Cn1cnc(S(=O)(=O)NCCc2c(CCOc3ccc(C(=O)O)cc3)c3cc(Cl)ccc3n2C(c2ccccc2)c2ccccc2)c1 [Example 4, 4-{2-[1-Benzhydryl-5-chloro-2-(2{[(1-methyl-1H-imidazol-4-yl)sulfonyl]amino}ethyl)-1H-indol-3-yl]ethoxy}benzoic acid]
550 nM | CS(=O)(=O)CS(=O)(=O)NCCc1c(CCOc2ccc(C(=O)O)cc2)c2cc(Cl)ccc2n1C(c1ccccc1)c1ccccc1 [Example 7, 4-(2-(1-Benzhydryl-5-chloro-2-[2-({[(methylsulfonyl)methyl]sulfonyl}amino)ethyl]-1H-indol-3-yl}ethoxy)benzoic acid]
200 nM | CN(C)S(=O)(=O)NCCc1c(CCOc2ccc(C(=O)O)cc2)c2cc(Cl)ccc2n1C(c1ccccc1)c1ccccc1 [Example 17, 4-{2-[1-Benzhydryl-5-chloro-2-(2-{[(dimethylamino)sulfonyl]amino}ethyl)-1H-indol-3-yl]ethoxy}benzoic acid]
400 nM | O=C(O)c1ccc(OCCc2c(CCNS(=O)(=O)Cc3ccc(F)c(F)c3)n(C(c3ccccc3)c3ccccc3)c3ccc(Cl)cc23)cc1 [Example 18, 4-{2-[1-Benzhydryl-5-chloro-2-(2{[(3,4-difluorobenzyl)sulfonyl]amino}-ethyl)-1H-indol-3-yl]ethoxy}benzoic acid]
310 nM | O=C(O)c1ccc(OCCc2c(CCNS(=O)(=O)Cc3ccc4ccccc4c3)n(C(c3ccccc3)c3ccccc3)c3ccc(Cl)cc23)cc1 [Example 19, 4-{2-[1-benzhydryl-5-chloro-2-(2{[(2-naphthylmethyl)sulfonyl]amino}ethyl)-1H-indol-3-yl]ethoxy}benzoic acid]
1800 nM | O=C(O)c1ccc(OCCc2c(CCNS(=O)(=O)C(F)(F)F)n(C(c3ccccc3)c3ccccc3)c3ccc(Cl)cc23)cc1 [Example 22, 4-{2-[1-benzhydryl-5-chloro-2-(2-{[(trifluoromethyl)sulfonyl]amino}ethyl)-1H-indol-3-yl]ethoxy}benzoic acid]
340 nM | O=C(O)c1ccc(OCCc2c(CCNS(=O)(=O)Cc3cc(C(F)(F)F)cc(C(F)(F)F)c3)n(C(c3ccccc3)c3ccccc3)c3ccc(Cl)cc23)cc1 [Example 24, 4-(2-{1-benzhydryl-2-[2-({[3,5-bis(trifluoromethyl)benzyl]sulfonyl}amino)ethyl]-5-chloro-1H-indol-3-yl}ethoxy)benzoic acid]
3400 nM | O=C(O)c1ccc(OCCc2c(CCNS(=O)(=O)c3ccccc3C(=O)O)n(C(c3ccccc3)c3ccccc3)c3ccc(Cl)cc23)cc1 [Example 25, 2-{[(2-{1-benzhydryl-3-[2-(4-carboxyphenoxy)ethyl]-5-chloro-1H-indol-2-yl}ethyl)amino]sulfonyl}benzoic acid]
